Results: patent publication US20260132165A1, “MODIFIED NUCLEOSIDE ANALOGUE AND USE THEREOF, AND NUCLEOSIDE ANALOGUE-CONTAINING DOUBLE-STRANDED OLIGONUCLEOTIDE AND USE THEREOF” (RIGERNA THERAPEUTICS (BEIJING) CO., LTD., priority 2023, published 2026)
Strand notation (5' to 3'): a small letter for the sugar, then the base; units joined by * are phosphorothioate-linked, units joined directly phosphodiester-linked; [ ] holds rarer units or linkages, { } end groups; capitals alone tell only the bases. m = 2'-O-methyl; f = 2'-fluoro

Key:
SOD1 = experiment: Test Example 2: inhibitory activity of NM031 conjugated siRNA on SOD1 by intrathecal administration to mice; type: in vivo, C57BL/6j mice; conditions: intrathecal, 800 μg per mouse, D9
Procedure: 6-8 Week-old C57BL/6j mice were randomly grouped into 4 groups by body weight. PBS group was dosed with siRNA-free PBS solution, RX899001 group was dosed with siRNA compound RX899001 without vector conjugation, RZ899001 group was dosed with siRNA RZ899001 (the sense strand with the Uhd conjugation at Position 4) prepared in Example 1, and RZ899008 was dosed with siRNA RZ899008 (the sense strand with the NM031 conjugation at Position 4) prepared in Example 1. Mices in each group were anesthetized with isoflurane. After anesthetization, lumbar region thereof was sprayed wet with 75% disinfecting alcohol. 10 μL (concentration […]) of siRNA drug containing PBS solvent was sucked with an insulin injection needle, the mouse lumbar region was pinched with the left-hand index finger and thumb, patella crest was propped against, and needle was held by the right hand. The needle was bent by forceps in advance, wherein the needle was first bent in the middle by 80° to 90°, then a front half part of the needle was bent in half, and the whole needle was bent in an are shape of about 60° to 90°. Mouse abdominal region was padded with an article with a thickness of about 2 cm. The needle was inserted from a joint of lumbar spines L5 and L6 of mice, and when inserting the needle, the hand was slightly inclined forwards to insert the needle. […] After completion of the injection, the needle was slowly withdrawn at uniform velocity. The administration dose to each mouse in RX899001 group, RZ899001 group and RZ899008 group was 800 μg, a total volume injected was 10 μL, and the PBS group was administered with the same volume of siRNA-free PBS solution. After the animals woke up, the animals were returned back to the animal feeding room and further fed. The day of administration was recorded as first day (D1), and the mice were sacrificed on ninth day (D9). Lumbar spine, thoracic spine and cerebellum were respectively taken and stored in the RNAlater.
RNA extraction: an appropriate amount of lumbar spine, thoracic spine and cerebellum samples were respectively taken out from the RNAlater, and smashed for 60 s in Tissuelyser type II full-automatic tissue homogenizer, and total RNAs of various tissue samples were extracted using the full-automatic nucleic acid extraction instrument and the nucleic acid extraction kit from Zhejiang Hanwei Science and Technology Co. Ltd. according to methods described in instructions. Reverse transcription reaction: 1 μg of the extracted total RNAs of various tissue samples were respectively taken, and configured into 20 μL of reverse transcription system according to a method described in kit instructions by using a reverse transcription kit (Reverse Transcription System, A3500) from Promega Corporation and selecting Oligo (dT)15 reverse transcription primers, and the reverse transcription reaction was completed. After the reaction was ended, 80 μL of RNase-Free water was added into the reverse transcription system to provide cDNA solution for Real-time PCR detection.
Real-time PCR detection: 20 μL of Real-time PCR reaction system per PCR detection well was configured according to a method described in kit instructions using SYBR™ Select Master Mix (Catalog number: 4472908) reagent from ABI company. Each detection system contained 5 μL of cDNA template obtained from the above reverse transcription reaction, 10 μL of SYBR™ Select Master Mix, 0.5 μL of 10 μM upstream primers, 0.5 μL of 10 μM downstream primers (see TABLE 5 for primer information), and 4 μL of RNase-Free H2O. The configured reaction system was subjected to Real-time PCR amplification on ABI StepOnePlus PCR instrument by a three-step method, wherein an amplification procedure was pre-denaturation at 95° C. for 10 min, then denaturation at 95° C. for 30 s, annealing at 60° C. for 30 s, and extension at 72° C. for 30 s; and processes of denaturation, annealing, and extension were repeated for 40 cycles. […]

target gene SOD1 = experiment: Test Example 3: inhibitory activity of lipid conjugated siRNA sequences on SOD1 by lateral ventricle administration to mice; type: in vivo, C57BL/6j mice; conditions: 200 μg per mouse, D5
Procedure: 6-8 Week-old C57BL/6j mice were randomly grouped by body weight. Mice in each group were administered with siRNA by lateral ventricle administration, with an administration dose per mouse depending on a specific test. Taking Bregma in mouse brain as point 0 (origin), coordinates of right ventricle were found using the cerebral stereotaxic apparatus and position was marked on surface of skull (position of lateral ventricle was AP (anteroposterior, bregma anterior and posterior): −0.58 mm, ML (mediolateral, left and right of middle raphe): −1.2 mm, DV (dorsoventral, up and down cerebral dura mater plane): −2.2 mm). A dental electric drill was used to drill in the skull above a position of interest, and then medicament was injected into the lateral ventricle by a micro-dosing pump, wherein a total injection volume was 5 μL, and injection duration was 10 min. Needle was retained for 5 min after completion of injection, and then slowly withdrawn. Afterwards, needle hole was sealed with biomedical glue, and then head skin was adhered. After animals woke up, the animals were returned back to animal house and further fed. PBS control group was administered with the same volume of siRNA-free PBS solution. The day of administration was recorded as 0 day (D0), and the mice were sacrificed at observation point after the administration. Different parts of brain region were respectively taken and stored in the RNAlater.
RNA extraction: the above tissue samples were taken out from the RNAlater, and smashed for 60 s in Tissuelyser type II full-automatic tissue homogenizer, and total RNAs of various tissue samples were extracted using the full-automatic nucleic acid extraction instrument and the nucleic acid extraction kit from Zhejiang Hanwei Science and Technology Co. Ltd. according to methods described in instructions.
Reverse transcription reaction: 1 μg of the extracted total RNAs of the tissue samples were taken, and configured into 20 μL of reverse transcription system according to a method described in kit instructions by using a reverse transcription kit (Reverse Transcription System, A3500) from Promega Corporation and selecting Oligo (dT)15 reverse transcription primers, and the reverse transcription reaction was completed. After the reaction was ended, 80 μL of RNase-Free water was added into the reverse transcription system to provide cDNA solution for Real-time PCR detection.
Real-time PCR detection: 20 μL of Real-time PCR reaction system per PCR detection well was configured according to a method described in kit instructions using SYBR™ Select Master Mix (Catalog number: 4472908) reagent from ABI company. Each detection system contained 5 μL of cDNA template obtained from the above reverse transcription reaction, 10 μL of SYBR™ Select Master Mix, 0.5 μL of 10 μM upstream primers, 0.5 μL of 10 μM downstream primers, and 4 μL of RNase-Free H2O. The configured reaction system was subjected to Real-time PCR amplification on ABI StepOnePlus PCR instrument by a three-step method, wherein an amplification procedure was pre-denaturation at 95° C. for 10 min, then denaturation at 95° C. for 30 s, annealing at 60° C. for 30 s, and extension at 72° C. for 30 s; and processes of denaturation, annealing, and extension were repeated for 40 cycles. Gene expression differences were calculated by the ΔΔCt method after completion of the procedure.
In the real-time fluorescence quantitative PCR method, relative quantitative calculation of remaining expression level and inhibition rate of gene mRNA of interest in various test groups was performed by the ΔΔCt method, and the calculation method is as follows: […]

Substance	Cerebellum Mean value of inhibition rate % (SOD1) [%]	Lumbar spine Mean value of inhibition rate % (SOD1) [%]	Thoracic spine Mean value of inhibition rate % (SOD1) [%]	Cerebellum Mean value of inhibition rate % (target gene SOD1) [%]	Cortex Mean value of inhibition rate % (target gene SOD1) [%]	Hippocampus Mean value of inhibition rate % (target gene SOD1) [%]
RX899001: siRNA compound without vector conjugation, SOD1 sequence; sense SEQ ID NO: 1, antisense SEQ ID NO: 2 (sense mU*mU*mUmUmAmAfUfCfCmUmCmAmCmUmCmUmAmAmA; antisense mU*fU*mUmAmGfAmGmUmGmAmGmGmAfUmUfAmAmAmA*mU*mG) [reference compound]	14.01	7.54	41.98			
RZ899001: control siRNA, the sense strand with the Uhd conjugation at Position 4; SEQ ID NO: 4 / 2 (sense UUUNAAUCCUCACUCUAAA; antisense UUUAGAGUGAGGAUUAAAAUG; Uhd conjugate at sense position 4; modified_base 1..2 OTHER; 2'-methoxy and 5'-thiophosphate modified nucleotides; modified_base 3 OTHER; 2'-methoxy modified nucleotide; modified_base 4 OTHER; n is the synthetic nucleotide analog Uhd as described in the disclosure.; modified_base 5..6 OTHER; 2'-methoxy modified nucleotides; modified_base 7..9 OTHER; 2'-fluoro modified nucleotides; modified_base 10..19 OTHER; 2'-methoxy modified nuc; modified_base 1 OTHER; 2'-methoxy and 5'-thiophosphate modified nucleotide; modified_base 2 OTHER; 2'-fluoro and 5'-thiophosphate modified nucleotide; …) [reference compound]	60.22	64.13	60.27			
RZ899052: siRNA, the sense strand with the NM058 conjugation at Position 5; SEQ ID NO: 5 / 22 (sense UUUUNAUCCUCACUCUAAA; antisense UUUAGAGUGAGGAUUAAAAUG; NM058 conjugate at sense position 5; modified_base 1..2 OTHER; 2'-methoxy and 5'-thiophosphate modified nucleotides; modified_base 3..4 OTHER; 2'-methoxy modified nucleotides; modified_base 5 OTHER; n is the synthetic nucleotide analog NM058 as described in the disclosure(e.g., NM058-1 (1N-(9-[(2S,5R)-5-{[bis(4-methoxyphenyl)(phenyl)methoxy]methyl}-3,4-dihydroxytetrahydrofuran-2-yl]-9H-purin-6-yl)benzamide)).; modified_base 6 OTHER; modified_base 1 OTHER; 2'-methoxy and 5'-thiovinylphosphonate modified nucleotide; modified_base 2 OTHER; 2'-fluoro and 5'-thiophosphate modified nucleotide; …)				53.02	62.93	87.35
RZ899053: siRNA, the sense strand with the NM058 conjugation at Position 6; SEQ ID NO: 6 / 22 (sense UUUUANUCCUCACUCUAAA; antisense UUUAGAGUGAGGAUUAAAAUG; NM058 conjugate at sense position 6; modified_base 1..2 OTHER; 2'-methoxy and 5'-thiophosphate modified nucleotides; modified_base 3..5 OTHER; 2'-methoxy modified nucleotides; modified_base 6 OTHER; n is the synthetic nucleotide analog NM058 as described in the disclosure(e.g., NM058-1 (1N-(9-[(2S,5R)-5-{[bis(4-methoxyphenyl)(phenyl)methoxy]methyl}-3,4-dihydroxytetrahydrofuran-2-yl]-9H-purin-6-yl)benzamide)).; modified_base 7..9 OTHE; modified_base 1 OTHER; 2'-methoxy and 5'-thiovinylphosphonate modified nucleotide; modified_base 2 OTHER; 2'-fluoro and 5'-thiophosphate modified nucleotide; …)				42.55	55.87	74.13
